Target: human Cav2.2 (Homo sapiens, UniProt Q00975)
Assay: Assessment of calcium channel activity using FLIPR (Ca2+ influx in IMR32 cells)
Type: cell-based
Settings: IMR32 cells endogenously expressing human Cav2.2; 60 minute pre-incubation; 2 μM nifedipine; depolarized with 80 mM KCl, 5 mM CaCl2
Method in brief: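 IMR32 cells were dye-loaded and pre-incubated 60 min with compound (10 μM to 0.1 nM) in 1.3 mM CaCl2 plus 2 μM nifedipine to block L-type channels. Cells were then depolarized with 80 mM KCl while Ca2+ was raised to 5 mM, and FLIPR read the influx. IC50 came from a sigmoidal fit of % inhibition versus the no-inhibitor control.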

human Cav2.2, sequence (Q00975 whole entry): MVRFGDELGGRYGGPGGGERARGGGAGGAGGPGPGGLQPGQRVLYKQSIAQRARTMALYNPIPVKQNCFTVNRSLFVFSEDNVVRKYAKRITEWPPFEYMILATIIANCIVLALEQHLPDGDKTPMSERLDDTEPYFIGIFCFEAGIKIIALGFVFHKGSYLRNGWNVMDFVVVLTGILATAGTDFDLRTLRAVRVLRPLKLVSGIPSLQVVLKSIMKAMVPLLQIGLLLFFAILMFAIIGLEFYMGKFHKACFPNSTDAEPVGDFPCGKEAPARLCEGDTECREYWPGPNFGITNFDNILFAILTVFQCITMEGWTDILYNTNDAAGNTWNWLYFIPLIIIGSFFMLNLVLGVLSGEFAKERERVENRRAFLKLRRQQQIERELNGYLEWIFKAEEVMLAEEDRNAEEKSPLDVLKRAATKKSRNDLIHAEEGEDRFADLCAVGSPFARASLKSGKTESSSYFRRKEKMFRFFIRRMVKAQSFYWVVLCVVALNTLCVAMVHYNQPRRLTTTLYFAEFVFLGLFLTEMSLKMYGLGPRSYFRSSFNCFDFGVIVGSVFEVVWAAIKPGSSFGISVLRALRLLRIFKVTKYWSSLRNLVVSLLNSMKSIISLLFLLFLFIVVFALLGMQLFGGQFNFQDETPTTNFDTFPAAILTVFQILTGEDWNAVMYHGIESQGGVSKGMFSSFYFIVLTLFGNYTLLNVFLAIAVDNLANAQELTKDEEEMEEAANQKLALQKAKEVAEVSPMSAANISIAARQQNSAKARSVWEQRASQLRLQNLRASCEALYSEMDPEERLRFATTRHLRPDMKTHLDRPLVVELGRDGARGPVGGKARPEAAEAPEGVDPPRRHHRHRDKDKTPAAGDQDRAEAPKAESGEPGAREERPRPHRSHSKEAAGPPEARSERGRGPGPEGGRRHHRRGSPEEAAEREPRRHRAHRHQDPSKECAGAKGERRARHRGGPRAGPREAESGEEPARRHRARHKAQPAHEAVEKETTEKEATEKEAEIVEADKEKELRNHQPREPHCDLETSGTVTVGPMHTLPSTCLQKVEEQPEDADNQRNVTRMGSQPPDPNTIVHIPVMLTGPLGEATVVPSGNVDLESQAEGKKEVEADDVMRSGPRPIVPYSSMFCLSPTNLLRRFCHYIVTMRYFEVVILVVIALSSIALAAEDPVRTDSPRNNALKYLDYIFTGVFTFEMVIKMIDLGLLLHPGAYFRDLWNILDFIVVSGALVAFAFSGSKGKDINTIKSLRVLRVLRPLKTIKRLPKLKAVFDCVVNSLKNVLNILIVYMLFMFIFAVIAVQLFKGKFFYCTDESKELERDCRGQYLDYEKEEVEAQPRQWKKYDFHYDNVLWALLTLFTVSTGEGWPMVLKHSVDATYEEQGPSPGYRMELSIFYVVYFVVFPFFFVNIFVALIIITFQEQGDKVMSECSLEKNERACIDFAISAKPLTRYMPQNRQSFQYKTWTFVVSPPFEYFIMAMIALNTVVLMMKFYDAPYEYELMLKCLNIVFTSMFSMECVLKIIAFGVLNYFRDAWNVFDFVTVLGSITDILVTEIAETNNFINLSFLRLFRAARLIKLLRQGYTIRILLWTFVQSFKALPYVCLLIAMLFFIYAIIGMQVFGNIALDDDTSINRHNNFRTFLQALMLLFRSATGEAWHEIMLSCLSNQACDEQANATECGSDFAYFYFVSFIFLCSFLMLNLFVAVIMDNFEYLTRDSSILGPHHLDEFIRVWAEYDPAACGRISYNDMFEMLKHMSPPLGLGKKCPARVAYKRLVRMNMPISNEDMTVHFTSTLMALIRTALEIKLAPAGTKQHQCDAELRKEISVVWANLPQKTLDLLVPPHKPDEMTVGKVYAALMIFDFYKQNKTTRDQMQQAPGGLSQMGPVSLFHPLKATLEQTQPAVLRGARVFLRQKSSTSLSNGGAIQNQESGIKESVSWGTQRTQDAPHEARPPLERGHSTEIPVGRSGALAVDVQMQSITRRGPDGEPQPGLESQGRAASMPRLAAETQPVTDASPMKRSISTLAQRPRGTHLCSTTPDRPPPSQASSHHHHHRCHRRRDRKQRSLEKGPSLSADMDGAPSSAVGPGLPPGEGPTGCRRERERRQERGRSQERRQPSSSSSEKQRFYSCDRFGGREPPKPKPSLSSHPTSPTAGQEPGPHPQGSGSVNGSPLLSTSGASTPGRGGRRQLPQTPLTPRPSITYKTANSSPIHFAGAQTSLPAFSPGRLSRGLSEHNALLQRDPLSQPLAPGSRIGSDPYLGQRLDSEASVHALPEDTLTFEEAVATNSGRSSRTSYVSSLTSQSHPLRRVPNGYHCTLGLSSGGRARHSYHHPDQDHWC
human Cav2.2, sequence (P54289 25-951 partner limits assumed): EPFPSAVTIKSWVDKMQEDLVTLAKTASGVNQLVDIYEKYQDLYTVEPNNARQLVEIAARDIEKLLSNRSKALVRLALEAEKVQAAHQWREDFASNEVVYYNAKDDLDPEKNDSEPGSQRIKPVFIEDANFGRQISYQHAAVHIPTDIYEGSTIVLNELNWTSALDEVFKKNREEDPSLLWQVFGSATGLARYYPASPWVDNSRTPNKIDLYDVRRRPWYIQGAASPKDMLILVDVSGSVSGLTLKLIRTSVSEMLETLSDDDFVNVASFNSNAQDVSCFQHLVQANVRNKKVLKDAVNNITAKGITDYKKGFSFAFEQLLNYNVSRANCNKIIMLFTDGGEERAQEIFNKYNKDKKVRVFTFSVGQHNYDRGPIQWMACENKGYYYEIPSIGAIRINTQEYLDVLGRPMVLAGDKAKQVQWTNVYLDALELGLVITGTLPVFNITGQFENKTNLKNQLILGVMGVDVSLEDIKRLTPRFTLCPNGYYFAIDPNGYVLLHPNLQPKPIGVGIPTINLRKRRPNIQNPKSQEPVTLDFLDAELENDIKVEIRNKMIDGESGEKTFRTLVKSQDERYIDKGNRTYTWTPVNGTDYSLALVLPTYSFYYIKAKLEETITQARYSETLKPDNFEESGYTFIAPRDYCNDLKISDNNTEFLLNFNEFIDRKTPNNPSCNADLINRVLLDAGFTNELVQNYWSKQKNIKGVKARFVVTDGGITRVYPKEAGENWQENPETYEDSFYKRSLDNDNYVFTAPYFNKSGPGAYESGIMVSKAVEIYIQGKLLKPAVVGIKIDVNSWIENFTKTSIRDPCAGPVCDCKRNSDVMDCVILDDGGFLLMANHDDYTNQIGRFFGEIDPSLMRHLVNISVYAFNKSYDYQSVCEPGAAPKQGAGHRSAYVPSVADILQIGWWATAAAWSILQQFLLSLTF
human Cav2.2, sequence (P54289 952-1103 partner limits assumed): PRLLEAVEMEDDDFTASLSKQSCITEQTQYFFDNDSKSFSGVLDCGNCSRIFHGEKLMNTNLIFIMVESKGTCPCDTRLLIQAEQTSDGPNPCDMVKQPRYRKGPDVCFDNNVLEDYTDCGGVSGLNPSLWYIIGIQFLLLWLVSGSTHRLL
human Cav2.2, sequence (P54284 whole entry partner): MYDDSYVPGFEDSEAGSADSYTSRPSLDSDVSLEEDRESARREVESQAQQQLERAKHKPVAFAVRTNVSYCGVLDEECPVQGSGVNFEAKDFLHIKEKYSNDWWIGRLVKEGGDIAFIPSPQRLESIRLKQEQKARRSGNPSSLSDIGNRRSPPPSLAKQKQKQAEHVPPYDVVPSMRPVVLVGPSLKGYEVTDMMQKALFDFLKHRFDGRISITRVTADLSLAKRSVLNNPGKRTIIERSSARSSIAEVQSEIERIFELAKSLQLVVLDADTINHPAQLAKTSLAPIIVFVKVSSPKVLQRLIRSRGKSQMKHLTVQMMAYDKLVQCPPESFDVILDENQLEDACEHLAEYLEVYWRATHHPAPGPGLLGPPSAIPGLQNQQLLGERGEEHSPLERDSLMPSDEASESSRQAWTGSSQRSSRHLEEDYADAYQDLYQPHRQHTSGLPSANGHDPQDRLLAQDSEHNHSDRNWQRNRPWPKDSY

Structure (SMILES) | IC50
O=C(CN1CCCC(c2ccccc2)(c2ccccc2)C1=O)N1CCN(Cc2cccc(Cl)c2)CC1 [Example 81, 1-{2-[4-(3-chlorobenzyl)piperazin-1-yl]-2-oxoethyl}-3,3-diphenylpiperidin-2-one] | 1320 nM
O=C(CN1CCCC(c2ccccc2)C1=O)N1CCc2ccc(C(F)(F)F)cc2C1 (stereo not shown) [Example 96, 1-{2-oxo-2-[7-(trifluoromethyl)-3,4-dihydroisoquinolin-2(1H)-yl]ethyl}-3-phenylpiperidin-2-one] | 8900 nM
O=C(CN1CCC(c2ccccc2)(c2ccccc2)C1=O)N1CCC[C@H]2CN(C(c3ccccc3)c3ccccc3)C[C@H]21 [Example 50, 1-{2-[(4aS,7aS)-6-benzhydryloctahydro-1H-pyrrolo[3,4-b]pyridin-1-yl]-2-oxoethyl}-3,3-diphenylpyrrolidin-2-one] | 2620 nM
CC1(C)C(=O)N(CCN2CCC(c3ccccc3)(c3ccccc3)C2=O)CCN1Cc1cccs1 [Example 65, 3,3-dimethyl-1-[2-(2-oxo-3,3-diphenylpyrrolidin-1-yl)ethyl]-4-(thien-2-ylmethyl)piperazin-2-one] | 1040 nM
O=C(CN1CCCC(c2ccccc2)C1=O)N1CCN(C(c2ccc(F)cc2)c2ccc(F)cc2)CC1 (stereo not shown) [Example 92, 1-(2-{4-[bis(4-fluorophenyl)methyl]piperazin-1-yl}-2-oxoethyl)-3-phenylpiperidin-2-one] | 1010 nM
Nc1ccc(-c2noc(CN3CCC(c4ccccc4)(c4ccccc4)C3=O)n2)cn1 [Example 234, 1-{[3-(6-aminopyridin-3-yl)-1,2,4-oxadiazol-5-yl]methyl}-3,3-diphenylpyrrolidin-2-one] | 6540 nM
Cn1ccc(CNC(=O)CN2CCC(c3ccccc3)(c3ccccc3)C2=O)n1 [Example 4, N-[(1-methyl-1H-pyrazol-3-yl)methyl]-2-(2-oxo-3,3-diphenylpyrrolidin-1-yl)acetamide] | 29800 nM
O=C1N(Cc2nc(-c3cccnc3)no2)CCC1(c1ccccc1)c1ccccc1 [Example 221, 3,3-diphenyl-1-[(3-pyridin-3-yl-1,2,4-oxadiazol-5-yl)methyl]pyrrolidin-2-one] | 5670 nM
CN(CCCN1CCCC(c2ccccc2)(c2ccccc2)C1=O)CCc1ccccc1 [Example 117, 1-{3-[methyl(2-phenylethyl)amino]propyl}-3,3-diphenylpiperidin-2-one] | 3460 nM
O=C(CN1CCCC(c2ccccc2)(c2ccccc2)C1=O)N[C@@H]1CCN(Cc2cccc(C(F)(F)F)c2)C1 [Example 186, 2-(2-oxo-3,3-diphenylpiperidin-1-yl)-N-{(3R)-1-[3-(trifluoromethyl)benzyl]pyrrolidin-3-yl}acetamide] | 1370 nM
O=C(CN1CCC(c2ccccc2)(c2ccccc2)C1=O)N[C@@H]1CC[C@H]2CN(Cc3cccc(C(F)(F)F)c3)C[C@H]21 (relative stereo) [Example 57, 2-(2-oxo-3,3-diphenylpyrrolidin-1-yl)-N-{(3aS*,4R*,6aR*)-2-[3-(trifluoromethyl)benzyl]octahydrocyclopenta[c]pyrrol-4-yl}acetamide] | 490 nM
N#Cc1ccc(-c2noc(CN3CCC(c4ccc(F)cc4)(c4ccc(F)cc4)C3=O)n2)cc1 [Example 235, 4-(5-{[3,3-bis(4-fluorophenyl)-2-oxopyrrolidin-1-yl]methyl}-1,2,4-oxadiazol-3-yl)benzonitrile] | 3180 nM
O=C(CN1CCC(c2ccccc2)(c2ccccc2)C1=O)NC(c1ccccc1)c1ccccc1 [Example 14, N-benzhydryl-2-(2-oxo-3,3-diphenylpyrrolidin-1-yl)acetamide] | 970 nM
O=C(CN1CCC(c2ccccc2)(c2ccccc2)C1=O)NCc1ccc(C(F)(F)F)cc1 [Example 8, 2-(2-oxo-3,3-diphenylpyrrolidin-1-yl)-N-[4-(trifluoromethyl)benzyl]acetamide] | 1490 nM
O=C(CN1CCCC(c2ccccc2)(c2ccccc2)C1=O)N1CCN(C(=O)OCc2ccccc2)CC1 [Example 182, benzyl 4-[(2-oxo-3,3-diphenylpiperidin-1-yl)acetyl]piperazine-1-carboxylate] | 1370 nM
O=C1N(S(=O)(=O)c2cccc(C(F)(F)F)c2)CCC1(c1ccc(F)cc1)c1ccc(F)cc1 [Example 145, 3,3-bis(4-fluorophenyl)-1-{[3-(trifluoromethyl)phenyl]sulfonyl}pyrrolidin-2-one] | 9640 nM
O=C(CN1CCCC(c2ccccc2)(c2ccccc2)C1=O)NC1CN(Cc2cccc(C(F)(F)F)c2)C1 [Example 180, 2-(2-oxo-3,3-diphenylpiperidin-1-yl)-N-{1-[3-(trifluoromethyl)benzyl]azetidin-3-yl}acetamide] | 940 nM
O=C1N(Cc2nc(CCc3ccc(Cl)cc3)no2)CCCC1(c1ccccc1)c1ccccc1 [Example 213, 1-({3-[2-(4-chlorophenyl)ethyl]-1,2,4-oxadiazol-5-yl}methyl)-3,3-diphenylpiperidin-2-one] | 1600 nM
O=C(CN1CCCC(c2ccccc2)(c2ccccc2)C1=O)N1CCN(C(c2ccccc2)c2ccccc2)C(=O)C1 [Example 83, 1-benzhydryl-4-[(2-oxo-3,3-diphenylpiperidin-1-yl)acetyl]piperazin-2-one] | 1230 nM

Structure (SMILES) | IC50
O=C1N(Cc2nc(-c3ccc(O)cc3)no2)CCCC1(c1ccccc1)c1ccccc1 [Example 206, 1-{[3-(4-hydroxyphenyl)-1,2,4-oxadiazol-5-yl]methyl}-3,3-diphenylpiperidin-2-one] | 4890 nM
O=C1N(CCCN2CCN(c3cccc(C(F)(F)F)c3)CC2)CCCC1(c1ccc(F)cc1)c1ccc(F)cc1 [Example 142, 3,3-bis(4-fluorophenyl)-1-(3-{4-[3-(trifluoromethyl)phenyl]piperazin-1-yl}propyl)piperidin-2-one] | 1230 nM
O=C1N(CCN2CCN(c3ncccn3)CC2)CCCC1(c1ccccc1)c1ccccc1 [Example 134, 3,3-diphenyl-1-[2-(4-pyrimidin-2-ylpiperazin-1-yl)ethyl]piperidin-2-one] | 6480 nM
O=C(CN1CCCC(c2ccccc2)(c2ccccc2)C1=O)N1CCN(Cc2ccc(F)c(C(F)(F)F)c2)CC1 [Example 184, 1-(2-{4-[4-fluoro-3-(trifluoromethyl)benzyl]piperazin-1-yl}-2-oxoethyl)-3,3-diphenylpiperidin-2-one] | 1270 nM
O=C1N(S(=O)(=O)c2ccc(C(F)(F)F)cc2)CCC1(c1ccccc1)c1ccccc1 [Example 149, 3,3-diphenyl-1-{[4-(trifluoromethyl)phenyl]sulfonyl}pyrrolidin-2-one] | 8130 nM
C[C@@H]1CN(C(=O)c2cccc(S(=O)(=O)N3CCC(c4ccccc4)(c4ccccc4)C3=O)c2)C[C@H](C)O1 [Example 147, 1-[(3-{[cis-2,6-dimethylmorpholin-4-yl]carbonyl}phenyl)sulfonyl]-3,3-diphenylpyrrolidin-2-one] | 1840 nM
CC(C)(C)OC(=O)Nc1ccc(-c2noc(CN3CCC(c4ccccc4)(c4ccccc4)C3=O)n2)cn1 [Example 231, tert-butyl 5-{5-[(2-oxo-3,3-diphenylpyrrolidin-1-yl)methyl]-1,2,4-oxadiazol-3-yl}pyridin-2-ylcarbamate] | > 30000 nM
O=C(CN1CCCC(c2ccccc2)(c2ccccc2)C1=O)N1CCC(c2ccc(F)cc2)CC1 [Example 244, 1-{2-[4-(4-fluorophenyl)piperidin-1-yl]-2-oxoethyl}-3,3-diphenylpiperidin-2-one] | 3690 nM
O=C1C(c2ccc(F)cc2)CCN1Cc1nc(-c2ccc(C(F)(F)F)nc2)no1 (stereo not shown) [Example 238, 3-(4-fluorophenyl)-1-({3-[6-(trifluoromethyl)pyridin-3-yl]-1,2,4-oxadiazol-5-yl}methyl)pyrrolidin-2-one] | 12400 nM
O=C(CN1CCCC(c2ccccc2)(c2ccccc2)C1=O)NC1CCN(C(c2ccccc2)c2ccccc2)CC1 [Example 85, N-(1-benzhydrylpiperidin-4-yl)-2-(2-oxo-3,3-diphenylpiperidin-1-yl)acetamide] | 410 nM
O=C(CN1CCC(c2ccccc2)(c2ccccc2)C1=O)N1CCN(C(c2ccccc2)c2ccc(Cl)cc2)CC1 (stereo not shown) [Example 47, 1-(2-{4-[(4-chlorophenyl)(phenyl)methyl]piperazin-1-yl}-2-oxoethyl)-3,3-diphenylpyrrolidin-2-one] | 1010 nM
O=C(CN1CCC(c2ccccc2)(c2ccccc2)C1=O)N1CCN(Cc2ccc(Cl)cc2Cl)CC1 [Example 43, 1-{2-[4-(2,4-dichlorobenzyl)piperazin-1-yl]-2-oxoethyl}-3,3-diphenylpyrrolidin-2-one] | 520 nM
O=C1N(Cc2nc(-c3ccc(OC(F)(F)F)cc3)no2)CCCC1(c1ccccc1)c1ccccc1 [Example 199, 3,3-diphenyl-1-({3-[4-(trifluoromethoxy)phenyl]-1,2,4-oxadiazol-5-yl}methyl)piperidin-2-one] | 5980 nM
O=C(CN1CCC(c2ccc(F)cc2)(c2ccc(F)cc2)C1=O)N1CCc2ccc(C(F)(F)F)cc2C1 [Example 259, 3,3-bis(4-fluorophenyl)-1-{2-oxo-2-[7-(trifluoromethyl)-3,4-dihydroisoquinolin-2(1H)-yl]ethyl}pyrrolidin-2-one] | 2550 nM
O=C(CN1CCC(c2ccccc2)(c2ccccc2)C1=O)NCCc1cccc(C(F)(F)F)c1 [Example 10, 2-(2-oxo-3,3-diphenylpyrrolidin-1-yl)-N-{2-[3-(trifluoromethyl)phenyl]ethyl}acetamide] | 3870 nM
O=C1N(S(=O)(=O)c2cccc(C(F)(F)F)c2)CCC1(c1ccccc1)c1ccccc1 [Example 144, 3,3-diphenyl-1-{[3-(trifluoromethyl)phenyl]sulfonyl}pyrrolidin-2-one] | 5480 nM
CN(CCCN1CCC(c2ccc(F)cc2)(c2ccc(F)cc2)C1=O)C1Cc2ccccc2C1 [Example 114, 1-{3-[2,3-dihydro-1H-inden-2-yl(methyl)amino]propyl}-3,3-bis(4-fluorophenyl)pyrrolidin-2-one] | 1530 nM
O=C1N(Cc2nc(-c3ccc(F)cc3)no2)CCCC1(c1ccccc1)c1ccccc1 [Example 100, 1-{[3-(4-fluorophenyl)-1,2,4-oxadiazol-5-yl]methyl}-3,3-diphenylpiperidin-2-one] | 5290 nM

Reference: patent US8044069B2, “Compounds as calcium channel blockers” (Abbott Laboratories, priority 2008, dated 2011)
